For 15 molecules, Ki, Activity and Km results are on record in ChEMBL document CHEMBL2074317, “Functional characterization of an organic cation transporter (hOCT1) in a transiently transfected human cell line (HeLa)” (J Pharmacol Exp Ther, 1998).

T1: Solute carrier family 22 member 1 (Homo sapiens, UniProt O15245)
T1 sequence (O15245 whole entry): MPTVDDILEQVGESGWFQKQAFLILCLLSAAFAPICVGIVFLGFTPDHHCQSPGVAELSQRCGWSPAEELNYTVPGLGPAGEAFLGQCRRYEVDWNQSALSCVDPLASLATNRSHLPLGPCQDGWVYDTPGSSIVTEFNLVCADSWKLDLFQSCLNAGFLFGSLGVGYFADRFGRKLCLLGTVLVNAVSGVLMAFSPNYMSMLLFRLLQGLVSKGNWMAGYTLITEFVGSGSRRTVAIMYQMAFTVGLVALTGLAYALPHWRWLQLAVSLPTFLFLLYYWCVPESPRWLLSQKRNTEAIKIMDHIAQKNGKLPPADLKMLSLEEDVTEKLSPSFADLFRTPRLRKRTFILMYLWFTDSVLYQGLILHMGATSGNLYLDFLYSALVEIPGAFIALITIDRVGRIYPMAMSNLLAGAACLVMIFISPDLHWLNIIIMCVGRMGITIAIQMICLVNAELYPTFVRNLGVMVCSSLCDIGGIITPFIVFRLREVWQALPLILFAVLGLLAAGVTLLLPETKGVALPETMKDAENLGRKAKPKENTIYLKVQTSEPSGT

B1: Solute carrier family 22 member 1 (Homo sapiens) (protein)
chain: MPTVDDILEQVGESGWFQKQAFLILCLLSAAFAPICVGIVFLGFTPDHHCQSPGVAELSQRCGWSPAEELNYTVPGLGPAGEAFLGQCRRYEVDWNQSALSCVDPLASLATNRSHLPLGPCQDGWVYDTPGSSIVTEFNLVCADSWKLDLFQSCLNAGFLFGSLGVGYFADRFGRKLCLLGTVLVNAVSGVLMAFSPNYMSMLLFRLLQGLVSKGNWMAGYTLITEFVGSGSRRTVAIMYQMAFTVGLVALTGLAYALPHWRWLQLAVSLPTFLFLLYYWCVPESPRWLLSQKRNTEAIKIMDHIAQKNGKLPPADLKMLSLEEDVTEKLSPSFADLFRTPRLRKRTFILMYLWFTDSVLYQGLILHMGATSGNLYLDFLYSALVEIPGAFIALITIDRVGRIYPMAMSNLLAGAACLVMIFISPDLHWLNIIIMCVGRMGITIAIQMICLVNAELYPTFVRNLGVMVCSSLCDIGGIITPFIVFRLREVWQALPLILFAVLGLLAAGVTLLLPETKGVALPETMKDAENLGRKAKPKENTIYLKVQTSEPSGT

In the first data set the target is T1, Solute carrier family 22 member 1. The data set can be described thus: TP_TRANSPORTER: inhibition of TEA uptake in OCT1-expressing HeLa cells. Type of data set: functional, cell-based.
In the case of `CCN1/C(=C/c2ccc3ccccc3[n+]2CC)C=Cc2ccccc21`, affinity was put at a Ki of 2.73 µM.
The molecule `C[n+]1ccc(-c2ccccc2)cc1` returned a Ki of 12.3 µM.
Still for that read-out and setting: the same measure for `CCCC(=O)Nc1ccc(OCC(O)CNC(C)C)c(C(C)=O)c1` (stereo not given) [ACEBUTOLOL]: 95.8 µM.
For `CN/C(=N/CCSCc1nc[nH]c1C)NC#N` [CIMETIDINE], the Ki came to 166 µM.
Turning to `Clc1cccc(Cl)c1N=C1NCCN1` [CLONIDINE], affinity was put at a Ki of 0.55 µM.
Still for that read-out and setting: as for `C[C@]12C[C@H](O)[C@H]3[C@@H](CCC4=CC(=O)CC[C@@]43C)[C@@H]1CC[C@@H]2C(=O)CO` [CORTICOSTERONE], the figure is 7.02 µM.
On the same count and under the same terms, the same measure for `CNCCCN1c2ccccc2CCc2ccccc21` [DESIPRAMINE]: 5.36 µM.
`Cc1ncc2n1-c1ccc(Cl)cc1C(c1ccccc1F)=NC2` [MIDAZOLAM] registered a Ki of 3.7 µM.
`CNC(=O)c1cccnc1` [NICOTINYL METHYLAMIDE] came in with a Ki of 7700 µM.
Still for that read-out and setting: as for `CCN(CC)CCNC(=O)c1ccc(N)cc1` [PROCAINAMIDE], the figure is 73.9 µM; as for `CCCCC[N+](CCCCC)(CCCCC)CCCCC` [TETRAPENTYLAMMONIUM], 7.46 µM.
`CC[N+](CC)(CC)CC` [TETRYLAMMONIUM] returned a Ki of 161 µM.
On the same count and under the same terms, the same measure for `CC(=O)O[C@H]1C[C@@H]2CC[C@@H]3[C@H](CC[C@@]4(C)[C@H]3C[C@H]([N+]3(C)CCCCC3)[C@@H]4OC(C)=O)[C@@]2(C)C[C@@H]1N1CCCCC1` [VECURONIUM]: 232 µM.

The next data set has the same target. The data set can be described thus: TP_TRANSPORTER: inhibition of TEA uptake (TEA: 5 uM, Amantadine: 100 uM) in OCT1-expressing HeLa cells. In kind it is functional, cell-based.
For the molecule `NC12CC3CC(CC(C3)C1)C2` [AMANTADINE], the Activity result was “inhibitor [(at a rough estimate) 60 % of control]”.

Substrate in another data set: CC[N+](CC)(CC)CC
The data set can be described thus: cells, lysate or membranes named.
Turning to B1, the Km was 229 µM.
